# Patent US6864286B2, “Inhibitors of the EGF-receptor tyrosine kinase and methods for their use” (Parker Hughes Institute, priority 1998, dated 2005)
# Columns and labels:
# EGFR tyrosine kinase = biological target: T1, EGFR tyrosine kinase (Homo sapiens, UniProt P00533); assay: Cell-free EGFR immune complex kinase assay; format: biochemical; settings: EGFR immunoprecipitated from MDA-MB-231 lysates, 1 hour incubation, read-out: EGFR Inhibition IC50
# T1 construct: anti-EGFR immunoprecipitates from lysates of MDA-MB-231 human breast cancer cells; endogenous in cells; host or cells: MDA-MB-231 (ATCC HTB-26)
# T1 sequence (P00533 25-1210): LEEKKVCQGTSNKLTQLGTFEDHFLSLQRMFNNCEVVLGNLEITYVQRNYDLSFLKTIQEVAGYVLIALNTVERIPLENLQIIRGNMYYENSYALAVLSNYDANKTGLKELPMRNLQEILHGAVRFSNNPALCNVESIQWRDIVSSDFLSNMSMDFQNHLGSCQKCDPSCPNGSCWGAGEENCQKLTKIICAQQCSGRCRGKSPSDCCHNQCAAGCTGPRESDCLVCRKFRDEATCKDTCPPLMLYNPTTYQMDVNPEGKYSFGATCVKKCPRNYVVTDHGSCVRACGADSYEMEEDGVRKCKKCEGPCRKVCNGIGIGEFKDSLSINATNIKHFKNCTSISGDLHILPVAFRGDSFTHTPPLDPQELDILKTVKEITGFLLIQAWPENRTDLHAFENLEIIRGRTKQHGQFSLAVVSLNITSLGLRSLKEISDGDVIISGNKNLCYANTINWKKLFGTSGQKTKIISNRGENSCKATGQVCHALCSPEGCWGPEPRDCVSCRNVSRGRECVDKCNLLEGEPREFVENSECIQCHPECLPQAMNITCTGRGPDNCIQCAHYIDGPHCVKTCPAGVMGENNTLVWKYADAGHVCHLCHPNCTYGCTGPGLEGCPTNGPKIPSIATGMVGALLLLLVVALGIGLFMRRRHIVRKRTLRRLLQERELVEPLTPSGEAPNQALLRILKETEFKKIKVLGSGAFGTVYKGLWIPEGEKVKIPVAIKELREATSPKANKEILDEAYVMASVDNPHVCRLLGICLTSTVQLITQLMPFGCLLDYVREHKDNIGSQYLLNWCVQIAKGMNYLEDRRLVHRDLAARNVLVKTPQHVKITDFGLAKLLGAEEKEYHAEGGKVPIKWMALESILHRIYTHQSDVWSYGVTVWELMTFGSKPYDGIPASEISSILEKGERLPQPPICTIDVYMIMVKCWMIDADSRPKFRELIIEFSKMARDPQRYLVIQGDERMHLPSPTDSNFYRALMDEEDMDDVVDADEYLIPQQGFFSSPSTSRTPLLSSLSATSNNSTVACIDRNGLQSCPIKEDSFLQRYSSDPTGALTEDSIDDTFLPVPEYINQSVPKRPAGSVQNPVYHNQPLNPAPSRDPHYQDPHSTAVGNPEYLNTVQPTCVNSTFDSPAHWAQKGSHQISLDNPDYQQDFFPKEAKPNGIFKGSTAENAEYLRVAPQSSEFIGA
# Procedure: For EGFR immune complex kinase assays, 24-hours after treatment with leflunomide analogs, MDA-MB-231 breast cancer cells were stimulated with 20 ng/mL EGF for 5 minutes, lysed in 1% Nonidet-P-40 buffer, and cell lysates were immunoprecipitated with an anti-EGFR antibody reactive with the sequence Ala^351-Asp^364 of the human EGFR (Upstate Biotechnology Inc. [UBI] Catalog # 05-104) (Uckun, F. M., et al. Clin. Can. Res. 1998, 4, 901). EGFR immune complexes were examined for tyrosine phosphorylation by Western blot analysis, as described by Uckun, F. M., et al. Clin. Can. Res. 1998, 4, 901. All anti-phosphotyrosine Western blots were subjected to densitometric scanning using the automated AMBIS system (Automated Microbiology System, Inc., San Diego, Calif.) and for each time point a % inhibition value was determined by comparing the density ratios of the tyrosine phosphorylated EGFR protein bands to those of the baseline sample and using the formula: % Inhibition=100−100×[Density of tyrosine phosphorylated EGFR band]test sample/[Density of tyrosine phosphorylated EGFR band]baseline control sample. The IC50 values were determined using an Inplot program (Graphpad Software, Inc., San Diego, Calif.).
# In other experiments, MDA-MB-231 cells were stimulated with 10 ng/ml EGF prior to immunoprecipitation of the EGFR. EGFR immune complexes were incubated for 1 hour at room temperature with various LFM analogs and tyrosine kinase assays were performed in the presence of [γ-^32P]-ATP, as previously described (Uckun, F. M., et al. Clin. Can. Res. 1998, 4, 901; Narla, R. K., et al. Clin. Can. Res 1998, 1405; Uckun, F. M., et al. Science 1996, 22, 1096; Uckun, F. M., et al. Science 1995, 267, 886). The kinase assay gels were analyzed both by autoradiography and using the BioRad Storage Phosphor Imager System (BioRad, Hercules, Calif.) for quantitative scanning.
# MDA-MB-231 cells [1] = assay: MTT cytotoxicity assay, MDA-MB-231; format: cell-based; settings: Homo sapiens, 36 hours, read-out: Cancer Cell Cytotoxicity IC50 MDA-MB-231
# Procedure: (§1) In order to determine the cytotoxic activity of LFM and its analogs against breast cancer cells, cells in alpha-MEM supplemented with 10% (v/v) fetal calf serum were treated with various concentrations of the compounds for 24 hours at 37° C., washed twice in alpha-MEM, and then used in either MTT assays or in vitro invasion assays, as described hereinafter.
# (§2) The cytotoxicity of various compounds against human breast cancer cell lines was analyzed using the MTT (3-[4,5-dimethylthiazol-2-yl]-2,5-diphenyl tetrazolium bromide) assay (Boehringer Mannheim Corp., Indianapolis, Ind.). Uckun F. M., et al. Clin. Cancer Res. 1998, 4, 901-912. Exponentially growing breast cancer cells were seeded into a 96-well plate at a density of 2.5×10^4 cells/well and incubated for 36 hours at 37° C. prior to drug exposure. On the day of treatment, culture medium was carefully aspirated from the wells and replaced with fresh medium containing the LFM analogs at concentrations ranging from 2 to 250 μM. Triplicate wells were used for each treatment. The cells were incubated with the various compounds for 36 hours at 37° C. in a humidified 5% CO2 atmosphere. To each well, 10 μl of MTT (0.5 mg/ml final concentration) was added and the plates were incubated at 37° C. for 4 hours to allow MTT to form formazan crystals by reacting with metabolically active cells. The formazan crystals were solubilized overnight at 37° C. in a solution containing 10% SDS in 0.01 M HCl. The absorbence of each well was measured in a microplate reader (Labsystems) at 540 nm and a reference wavelength of 690 nm.
# (§3) To translate the absorbance A540 values into the number of live cells in each well, the A540 values were compared to those on standard A540-versus-cell number curves generated for each cell line. The percent survival was calculated using the formula: % survival=Live cell number[test]/Live cell number [control]×100. The IC50 values were calculated by non-linear regression analysis using an Graphpad Prism software version 2.0 (Graphpad Software, Inc., San Diego, Calif.).
# MDA-MB-361 cells = assay: MTT cytotoxicity assay, MDA-MB-361; format: cell-based; settings: Homo sapiens, 36 hours, read-out: Cancer Cell Cytotoxicity IC50 MDA-MB-361
# Procedure: as §1, §2, §3
# MDA-MB-231 cells [2] = assay: Confocal laser scanning microscopy of treated cells; format: cell-based, human; settings: MDA-MB-231, 100 μM, 24 hours, α-tubulin / TOTO-3 staining
# Procedure: Immunofluorescence was used to examine the morphologic features of breast cancer cells treated with LFM and its analogs. Before the experiment, cells were trypsinized from rapidly growing tissue culture flasks and seeded onto sterile 22 mm^2 coverslips in 6-well culture plates. Cells on coverslips were returned to the incubator for 24 hours prior to treatment. The following day, drugs were added from a stock solution made in DMSO to a final concentration of 100 μM. Final DMSO concentration was 0.1% in both test samples and controls. Cells were returned to a 37° C. incubator for 24 hours before further processing.
# At 24 hours, coverslips were fixed in −20° C. methanol for 15 minutes followed by a 15 minute incubation in phosphate buffered saline +0.1% Triton X-100(PBS-Tx). Coverslips were next incubated with a monoclonal antibody against α-tubulin (Sigma Chemical Co, St. Louis, Mo.) at a dilution of 1:1000 for 40 minutes in a humidified chamber at 37° C. Coverslips were washed for 15 minutes in PBS-Tx followed by a 40 min incubation with a goat anti-mouse IgG antibody conjugated to FITC (Amersham Corp., Arlington Heights, Ill.). The coverslips were again rinsed in PBS-Tx and incubated with 5 μM TOTO-3 (Molecular Probes, Eugene Oreg.) for 20 minutes to label the nuclear DNA. […]
IC50 (EGFR tyrosine kinase) [µM],SMILES,IC50 (MDA-MB-231 cells [1]) [µM],IC50 (MDA-MB-361 cells) [µM],morphology and microtubular organization of treated cells (MDA-MB-231 cells [2])
> 100,"CC(O)=C(C#N)C(=O)Nc1cccc(C(F)(F)F)c1 [LFM-A8, α-Cyano-β-hydroxy-β-methyl-N-[3-(trifluoromethyl)phenyl]-propenamide]",> 300,> 300,
> 100,"CC(O)=C(C#N)C(=O)Nc1cccc(Br)c1 [LFM-A9, α-Cyano-β-hydroxy-β-methyl-N-(3-bromophenyl)propenamide]",> 300,> 300,
> 100,"CC(O)=C(C#N)C(=O)Nc1cccc(Cl)c1 [LFM-A10, α-Cyano-β-hydroxy-β-methyl-N-(3-chlorophenyl)propenamide]",> 300,> 300,
> 100,"CC(O)=C(C#N)C(=O)Nc1cccc(F)c1 [LFM-A11, α-Cyano-β-hydroxy-β-methyl-N-(3-fluorophenyl)propenamide]",> 300,> 300,
> 100,"CC(O)=C(C#N)C(=O)Nc1ccccc1 [LFM-A14, α-Cyano-β-hydroxy-β-methyl-N-(phenyl)propenamide]",> 300,> 300,

# Second part, the molecule before the results:
SMILES,IC50 (EGFR tyrosine kinase) [µM],IC50 (MDA-MB-231 cells [1]) [µM],IC50 (MDA-MB-361 cells) [µM],morphology and microtubular organization of treated cells (MDA-MB-231 cells [2])
"CC(O)=C(C#N)C(=O)Nc1ccc(Br)cc1 [LFM-A1, α-Cyano-β-hydroxy-β-methyl-N-(4-bromophenyl)propenamide]",> 100,> 300,> 300,
"CC(O)=C(C#N)C(=O)Nc1ccc(Cl)cc1 [LFM-A2, α-Cyano-β-hydroxy-β-methyl-N-(4-chlorophenyl)propenamide]",> 100,> 300,> 300,
"CC(O)=C(C#N)C(=O)Nc1ccc(F)cc1 [LFM-A3, α-Cyano-β-hydroxy-β-methyl-N-(4-fluorophenyl)propenamide]",> 100,> 300,> 300,did not affect the morphology or microtubular organization
"CC(O)=C(C#N)C(=O)Nc1ccccc1C(F)(F)F [LFM-A4, α-Cyano-β-hydroxy-β-methyl-N-[2-(trifluoromethyl)phenyl]-propenamide]",> 100,> 300,> 300,
"CC(O)=C(C#N)C(=O)Nc1ccccc1Br [LFM-A5, α-Cyano-β-hydroxy-β-methyl-N-(2-bromophenyl)propenamide]",> 100,> 300,> 300,
"CC(O)=C(C#N)C(=O)Nc1ccccc1Cl [LFM-A6, α-Cyano-β-hydroxy-β-methyl-N-(2-chlorophenyl)propenamide]",> 100,> 300,> 300,
"CC(O)=C(C#N)C(=O)Nc1ccccc1F [LFM-A7, α-Cyano-β-hydroxy-β-methyl-N-(2-fluorophenyl)propenamide]",74.5,> 300,> 300,
"CC(O)=C(C#N)C(=O)Nc1cc(Br)ccc1Br [LFM-A13, α-Cyano-β-hydroxy-β-methyl-N-(2,5-dibromophenyl)propenamide]",> 100,> 300,> 300,
